Results as given in patent US8030354B2, “Substituted biphenyl GPR40 modulators” (Amgen Inc., priority 2007, dated 2011).

Key:
[1] = target: T1, GPR40 (Homo sapiens, UniProt O14842); assay: Cell-based aequorin assay (CHO cells stably expressing GPR40 and aequorin); set-up: expressed in transfected cells; host or cells: CHO cells stably transfected with GPR40 and aequorin; settings: activation of human GPR40, CHO cells, 0.01% HSA
How it was run: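 CHO cells stably co-expressing GPR40 and aequorin, loaded with coelenterazine (1 ug/mL, 2 h, room temperature) in H/HBSS with 20 mM Hepes and 0.01% fatty acid-free HSA. Serially diluted compounds added; luminescence recorded over 20 s. EC50 from dose-response of maximum relative light units.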

[2] = target: T1, GPR40; assay: Inositol phosphate accumulation assay (A9_GPR40 cells); assay type: cell-based; set-up: expressed in transfected cells; host or cells: CHO cells stably transfected with GPR40 and aequorin; settings: inositol phosphate assay, A9_GPR40 cells, 1 hour; read-out: IP3 EC50
How it was run: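 [^3H] inositol phosphate accumulation was measured by SPA after 1 h compound exposure at 37° C in HBSS/10 mM LiCl containing HSA, ending with a 20 mM formic acid quench. The GPR40-transfected A9 cells had first been labelled overnight (16 h) with 1 μCi/mL ^3H-inositol.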

T1 sequence (O14842 whole entry): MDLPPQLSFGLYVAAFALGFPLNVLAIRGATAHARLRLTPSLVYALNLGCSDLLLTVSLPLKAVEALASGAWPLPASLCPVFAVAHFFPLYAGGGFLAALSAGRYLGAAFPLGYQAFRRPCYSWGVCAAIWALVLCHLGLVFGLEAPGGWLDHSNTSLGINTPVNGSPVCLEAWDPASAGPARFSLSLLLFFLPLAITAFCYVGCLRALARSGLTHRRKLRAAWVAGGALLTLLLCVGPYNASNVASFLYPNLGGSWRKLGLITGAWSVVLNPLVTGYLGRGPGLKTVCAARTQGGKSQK

Row | EC50 [1] [nM] | EC50 [2] [nM] | Structure (SMILES)
1 | 100 to 1000 | 10 to 100 | COc1ccc(F)c(-c2ccc(COc3cccc(C(C)CC(=O)O)c3)cc2C2CCC(C)(C)CC2)c1 (single isomer, unassigned) [Example 64.7, (3R)-3-(3-(((2-(4,4-Dimethylcyclohexyl)-2′-fluoro-5′-(methyloxy)-1,1′-biphenyl-4-yl)methyl)oxy)phenyl)butanoic acid or (3S)-3-(3-(((2-(4,4-dimethylcyclohexyl)-2′-fluoro-5′-(methyloxy)-1,1′-biphenyl-4-yl)methyl)oxy)phenyl)butanoic acid]
2 | 100 to 1000 | 10 to 100 | CC1(C)CCC[C@@H]1c1cc(COc2cccc([C@@H](CC(=O)O)C3CC3)c2F)ccc1-c1cc(C(F)F)ccc1F (single isomer, unassigned) [Example 83.3]
3 | 100 to 1000 | 10 to 100 | COc1ccc(F)c(-c2ccc(COc3cccc(C(CC(=O)O)C4CCC4)c3)cc2C2CCCCCC2)c1 (single isomer, unassigned) [Example 79.7, (3S)-3-(3-(((2-Cycloheptyl-2′-fluoro-5′-(methyloxy)-1,1′-biphenyl-4-yl)methyl)oxy)phenyl)-3-cyclobutylpropanoic acid or (3R)-3-(3-(((2-cycloheptyl-2′-fluoro-5′-(methyloxy)-1,1′-biphenyl-4-yl)methyl)oxy)phenyl)-3-cyclobutylpropanoic acid]
4 | 100 to 1000 | 10 to 100 | COc1cc(-c2ccc(COc3cccc(C(C)(C)CC(=O)O)c3)cc2C(OC)C(C)(C)C)c(F)cn1 (single isomer, unassigned) [Example 85.6, 3-(3-(((3-((1S)-2,2-Dimethyl-1-(methyloxy)propyl)-4-(5-fluoro-2-(methyloxy)-4-pyridinyl)phenyl)methyl)oxy)phenyl)-3-methylbutanoic acid or 3-(3-(((3-((1R)-2,2-dimethyl-1-(methyloxy)propyl)-4-(5-fluoro-2-(methyloxy)-4-pyridinyl)phenyl)methyl)oxy)phenyl)-3-methylbutanoic acid]
5 | 1000 to 10000 | 100 to 1000 | CC[C@H](CC(=O)O)c1cccc(OCc2ccc(-c3cc(C(F)F)ccc3F)c(C3=CCCC3(C)C)c2)c1F (single isomer, unassigned) [Example 77.7, (3R)-3-(3-(((5′-(Difluoromethyl)-2-(5,5-dimethyl-1-cyclopenten-1-yl)-2′-fluoro-1,1′-biphenyl-4-yl)methyl)oxy)-2-fluorophenyl)pentanoic acid or (3S)-3-(3-(((5′-(difluoromethyl)-2-(5,5-dimethyl-1-cyclopenten-1-yl)-2′-fluoro-1,1′-biphenyl-4-yl)methyl)oxy)-2-fluorophenyl)pentanoic acid]
6 | 1000 to 10000 | 1000 to 10000 | C=C(C)[C@H](CC(=O)O)c1cccc(OCc2ccc(-c3cc(OC)ccc3F)c(OCCCC)c2)c1 (single isomer, unassigned) [Example 50, (3S)-3-(3-(((2-(Butyloxy)-2′-fluoro-5′-(methyloxy)-1,1′-biphenyl-4-yl)methyl)oxy)phenyl)-4-methyl-4-pentenoic acid or (3R)-3-(3-(((2-(butyloxy)-2′-fluoro-5′-(methyloxy)-1,1′-biphenyl-4-yl)methyl)oxy)phenyl)-4-methyl-4-pentenoic acid]
7 | 10 to 100 | < 10 | COc1cccc(-c2ccc(COc3cccc(C(CC(=O)O)C4CC4)c3)cc2C2CCCC2(C)C)c1 (stereo not drawn) [Example 66.8]
8 | 1000 to 10000 | 1000 to 10000 | CCOc1ccc(F)c(-c2ccc(COc3cccc([C@@H](CC(=O)O)C4CC4)c3)cc2[C@@H]2CCCC2(C)C)c1 (single isomer, unassigned) [Example 66.25]
9 | 100 to 1000 | 10 to 100 | CCC(C)(CC(=O)O)c1cccc(OCc2ccc(-c3cc(OC)ccc3F)c([C@@H]3CCCC3(C)C)c2)c1 (single isomer, unassigned) [Example 103, 3-(3-(((2-((1S)-2,2-Dimethylcyclopentyl)-2′-fluoro-5′-(methyloxy)-1,1′-biphenyl-4-yl)methyl)oxy)phenyl)-3-methylpentanoic acid or 3-(3-(((2-((1R)-2,2-dimethylcyclopentyl)-2′-fluoro-5′-(methyloxy)-1,1′-biphenyl-4-yl)methyl)oxy)phenyl)-3-methylpentanoic acid]
10 | 100 to 1000 | 100 to 1000 | CCC[C@H](CC(=O)O)c1cccc(OCc2ccc(-c3cccc(OC)c3)c(C(C)(C)C)c2)c1 (single isomer, unassigned) [Example 33, (3R)-3-(3-(((2-(1,1-Dimethylethyl)-3′-(methyloxy)-1,1′-biphenyl-4-yl)methyl)oxy)phenyl)hexanoic acid or (3S)-3-(3-(((2-(1,1-dimethylethyl)-3′-(methyloxy)-1,1′-biphenyl-4-yl)methyl)oxy)phenyl)hexanoic acid]
11 | 100 to 1000 | 10 to 100 | COc1ccc(F)c(-c2ccc(COc3cccc([C@H](C)CC(=O)O)c3)cc2C23CC4CC(CC(C4)C2)C3)c1 (single isomer, unassigned) [Example 64.16, (3R)-3-(3-(((2′-Fluoro-5′-(methyloxy)-2-tricyclo[3.3.1.1˜3,7˜]dec-1-yl-1,1′-biphenyl-4-yl)methyl)oxy)phenyl)butanoic acid or (3S)-3-(3-(((2′-fluoro-5′-(methyloxy)-2-tricyclo[3.3.1.1˜3,7˜]dec-1-yl-1,1′-biphenyl-4-yl)methyl)oxy)phenyl)butanoic acid]
12 | 100 to 1000 | < 10 | C=CC(C)(C)C(OC)c1cc(COc2cccc(C(CC(=O)O)CC3CC3)c2)ccc1-c1cc(OC)ccc1F (single isomer, unassigned) [Example 69.38]
13 | 100 to 1000 | 10 to 100 | COc1cccc(-c2ccc(COc3cccc(C(CC(=O)O)C4CCC4)c3)cc2C2CCCCCC2)c1 (single isomer, unassigned) [Example 79.8, (3S)-3-(3-(((2-Cycloheptyl-3′-(methyloxy)-1,1′-biphenyl-4-yl)methyl)oxy)phenyl)-3-cyclobutylpropanoic acid or (3R)-3-(3-(((2-cycloheptyl-3′-(methyloxy)-1,1′-biphenyl-4-yl)methyl)oxy)phenyl)-3-cyclobutylpropanoic acid]
14 | 100 to 1000 | < 10 | COc1ccc(F)c(-c2ccc(COc3cccc(C(CC(=O)O)C4CC4)c3F)cc2C2=CCCC2(C)C)c1 (single isomer, unassigned) [Example 83.14, (3S)-3-Cyclopropyl-3-(3-(((2-(5,5-dimethyl-1-cyclopenten-1-yl)-2′-fluoro-5′-(methyloxy)-1,1′-biphenyl-4-yl)methyl)oxy)-2-fluorophenyl)propanoic acid or (3R)-3-cyclopropyl-3-(3-(((2-(5,5-dimethyl-1-cyclopenten-1-yl)-2′-fluoro-5′-(methyloxy)-1,1′-biphenyl-4-yl)methyl)oxy)-2-fluorophenyl)propanoic acid]
15 | 100 to 1000 | 10 to 100 | CCC(CC(=O)O)c1cc(F)cc(OCc2ccc(-c3cc(OC)ccc3F)c(C3=CCCC3(C)C)c2)c1 (single isomer, unassigned) [Example 88.2, (3R)-3-(3-(((2-(5,5-Dimethyl-1-cyclopenten-1-yl)-2′-fluoro-5′-(methyloxy)-1,1′-biphenyl-4-yl)methyl)oxy)-5-fluorophenyl)pentanoic acid or (3S)-3-(3-(((2-(5,5-dimethyl-1-cyclopenten-1-yl)-2′-fluoro-5′-(methyloxy)-1,1′-biphenyl-4-yl)methyl)oxy)-5-fluorophenyl)pentanoic acid]
16 | 100 to 1000 | 10 to 100 | COc1ccc(F)c(-c2ccc(COc3cccc(C(C)CC(=O)O)c3)cc2CCC2CCCCC2)c1 (single isomer, unassigned) [Example 64.15, (3R)-3-(3-(((2-(2-Cyclohexylethyl)-2′-fluoro-5′-(methyloxy)-1,1′-biphenyl-4-yl)methyl)oxy)phenyl)butanoic acid or (3S)-3-(3-(((2-(2-cyclohexylethyl)-2′-fluoro-5′-(methyloxy)-1,1′-biphenyl-4-yl)methyl)oxy)phenyl)butanoic acid]
17 | 10 to 100 | < 10 | CCC(CC(=O)O)c1cccc(OCc2ccc(-c3cccc(OC)c3)c(C3CCCC3(C)C)c2)c1 (single isomer, unassigned) [Example 78.6]

Row | Structure (SMILES) | EC50 [1] [nM] | EC50 [2] [nM]
18 | COc1cc(-c2ccc(COc3cccc([C@@H](CC(=O)O)C4CC4)c3F)cc2[C@@H]2CCCC2(C)C)c(F)cn1 (single isomer, unassigned) [Example 83.5] | 100 to 1000 | 10 to 100
19 | COc1ccc(F)c(-c2ccc(COc3cccc([C@H](CC(=O)O)C4CC4)c3)cc2[C@@H]2CCCC2(C)C)c1 (single isomer, unassigned) [Example 97.3] | 100 to 1000 | 10 to 100
20 | COc1ccc(F)c(-c2ccc(COc3cccc([C@@H](CC(=O)O)C4CC4)c3)cc2[C@@H]2CCCCC2(C)C)c1 (single isomer, unassigned) [Example 66.22] | 10 to 100 | < 10
21 | COc1ccc(F)c(-c2ccc(COc3cccc([C@@H](CC(=O)O)C4CC4)c3)cc2[C@H](F)C(C)(C)C)c1 (single isomer, unassigned) [Example 66.31] | 100 to 1000 | 10 to 100
